Read-outs that look alike come from different tables or passages of the source.
Target: human TYK2 (JH2domain-pseudokinase) (Homo sapiens (Human), UniProt P29597)
Assay: TYK2 JH2 Domain Binding Assay (KINOMEscan)
Details: read-out: JH2 Kd
[1] = Table 5, Tyk2 JH2 Domain Binding Assay

human TYK2 (JH2domain-pseudokinase), sequence (P29597 556-888): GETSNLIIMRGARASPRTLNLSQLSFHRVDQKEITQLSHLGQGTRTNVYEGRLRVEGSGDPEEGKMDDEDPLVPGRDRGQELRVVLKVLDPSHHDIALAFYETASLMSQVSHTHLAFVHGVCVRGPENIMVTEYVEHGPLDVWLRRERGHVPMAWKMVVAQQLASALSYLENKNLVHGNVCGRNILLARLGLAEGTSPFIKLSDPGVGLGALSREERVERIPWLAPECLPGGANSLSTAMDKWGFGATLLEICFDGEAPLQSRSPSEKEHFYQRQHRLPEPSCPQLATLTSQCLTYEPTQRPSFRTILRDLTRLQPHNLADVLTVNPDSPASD

## CN(c1ccccc1Nc1cc(Nc2cc3c(cn2)COC3)nc2[nH]n(C)c(=O)c12)S(C)(=O)=O [Compound I-227, N-(2-((6-((1,3-dihydrofuro[3,4-c]pyridin-6-yl)amino)-2-methyl-3-oxo-2,3-dihydro-1H-pyrazolo[3,4-b]pyridin-4-yl)amino)phenyl)-N-methylmethanesulfonamide]
Table 4, JH2 binding assay
  Kd: < 0.1 nM

## COc1c(Nc2cc(NC(=O)C3CC3)nc3[nH]n(C)c(=O)c23)cccc1-c1ncnn1C [Compound I-54, N-(4-((2-methoxy-3-(1-methyl-1H-1,2,4-triazol-5-yl)phenyl)amino)-2-methyl-3-oxo-2,3-dihydro-1H-pyrazolo[3,4-b]pyridin-6-yl)cyclopropanecarboxamide]
Table 4, JH2 binding assay
  Kd: 0.5 to 1 nM

## COc1c(C#N)cccc1Nc1cc(Nc2ccc(N3CCCCC3)cn2)nc2[nH]n(C)c(=O)c12 [Compound I-40]
Table 4, JH2 binding assay
  Kd: > 10 nM

## COCc1ccnc(Nc2cc(Nc3ccccc3S(C)(=O)=O)c3c(=O)n(C)[nH]c3n2)c1 [Compound I-110, 6-((4-(methoxymethyl)pyridin-2-yl)amino)-2-methyl-4-((2-(methylsulfonyl)phenyl)amino)-1,2-dihydro-3H-pyrazolo[3,4-b]pyridin-3-one]
Table 4, JH2 binding assay
  Kd: 1 to 10 nM

## COc1c(Nc2cc(Nc3cc(C)c(F)cn3)nc3[nH]n(C)c(=O)c23)cccc1-c1cnc[nH]1 [Compound I-133]
Table 4, JH2 binding assay
  Kd: 0.1 to 0.5 nM

## COc1c(Nc2cc(NC(=O)C3CC3)nc3[nH]n(C)c(=O)c23)cccc1-c1nc(C)n(C)n1 [Compound I-53]
Table 4, JH2 binding assay
  Kd: 0.1 to 0.5 nM

## COc1c(C#N)cccc1Nc1cc(Nc2cc(C)c(F)cn2)nc2[nH]n(C)c(=O)c12 [Compound I-37]
Table 4, JH2 binding assay
  Kd: > 10 nM

## COc1c(Nc2cc(NC(=O)C3CC3)nc3[nH]n(C)c(=O)c23)cccc1-n1cccn1 [Compound I-56, N-(4-((2-methoxy-3-(1H-pyrazol-1-yl)phenyl)amino)-2-methyl-3-oxo-2,3-dihydro-1H-pyrazolo[3,4-b]pyridin-6-yl)cyclopropanecarboxamide]
Table 4, JH2 binding assay
  Kd: 0.5 to 1 nM

## CN(c1cc(C(F)(F)F)ccc1Nc1cc(NC(=O)C2CC2)nc2[nH]n(C)c(=O)c12)S(C)(=O)=O [Compound I-235, N-(2-methyl-4-((2-(N-methylmethylsulfonamido)-4-(trifluoromethyl)phenyl)amino)-3-oxo-2,3-dihydro-1H-pyrazolo[3,4-b]pyridin-6-yl)cyclopropanecarboxamide]
Table 4, JH2 binding assay
  Kd: 0.1 to 0.5 nM

## COc1c(Nc2cc(NC(=O)C3CC3)ncc2-c2ncc(CO)s2)cccc1-c1ncn(C)n1 [VIII-6, N-(5-(5-(hydroxymethyl)thiazol-2-yl)-4-((2-methoxy-3-(1-methyl-1H-1,2,4-triazol-3-yl)phenyl)amino)pyridin-2-yl)cyclopropanecarboxamide]
[1]
  Kd: 10 to 100 nM

## COCc1ccnc(Nc2cc(Nc3cccc(C#N)c3OC)c3c(=O)n(C)[nH]c3n2)c1 [Compound I-35]
Table 4, JH2 binding assay
  Kd: > 10 nM

## COc1c(F)cccc1Nc1cc(Nc2cccc(N3CC(OC)C3)n2)nc2[nH]n(C)c(=O)c12 [Compound I-94, 4-((3-fluoro-2-methoxyphenyl)amino)-6-((6-(3-methoxyazetidin-1-yl)pyridin-2-yl)amino)-2-methyl-1,2-dihydro-3H-pyrazolo[3,4-b]pyridin-3-one]
Table 4, JH2 binding assay
  Kd: 1 to 10 nM

## CN(c1ccccc1Nc1cc(Nc2cc3c(cn2)OCC3)nc2[nH]n(C)c(=O)c12)S(C)(=O)=O [Compound I-226, N-(2-((6-((2,3-dihydrofuro[2,3-c]pyridin-5-yl)amino)-2-methyl-3-oxo-2,3-dihydro-1H-pyrazolo[3,4-b]pyridin-4-yl)amino)phenyl)-N-methylmethanesulfonamide]
Table 4, JH2 binding assay
  Kd: 0.1 to 0.5 nM

## COc1c(F)cccc1Nc1cc(Nc2cncc(C#N)n2)nc2[nH]n(C)c(=O)c12 [Compound I-85, 6-((4-((3-fluoro-2-methoxyphenyl)amino)-2-methyl-3-oxo-2,3-dihydro-1H-pyrazolo[3,4-b]pyridin-6-yl)amino)pyrazine-2-carbonitrile]
Table 4, JH2 binding assay
  Kd: 0.5 to 1 nM

## COc1c(Nc2cc(NC(=O)C3CC3)nc3[nH]n(C)c(=O)c23)cccc1-c1noc(C)n1 [Compound I-131]
Table 4, JH2 binding assay
  Kd: 0.1 to 0.5 nM

## COc1c(Nc2cc(NC(=O)C3CC3)ncc2-n2cc(CO)cn2)cccc1-c1ncn(C)n1 [VIII-10, N-(5-(4-(hydroxymethyl)-1H-pyrazol-1-yl)-4-((2-methoxy-3-(1-methyl-1H-1,2,4-triazol-3-yl)phenyl)amino)pyridin-2-yl)cyclopropanecarboxamide]
[1]
  Kd: > 100 nM

## Cn1[nH]c2nc(Nc3cccc(C(F)(F)F)n3)cc(Nc3ccc(C4CC4)cc3S(C)(=O)=O)c2c1=O [Compound I-215, 4-((4-cyclopropyl-2-(methylsulfonyl)phenyl)amino)-2-methyl-6-((6-(trifluoromethyl)pyridin-2-yl)amino)-1,2-dihydro-3H-pyrazolo[3,4-b]pyridin-3-one]
Table 4, JH2 binding assay
  Kd: 0.1 to 0.5 nM

## COc1c(C#N)cccc1Nc1cc(Nc2ccc(N3CCOCC3)cn2)nc2[nH]n(C)c(=O)c12 [Compound I-36]
Table 4, JH2 binding assay
  Kd: > 10 nM

## Cn1[nH]c2nc(Nc3ccc(C4CC4)cn3)cc(Nc3ccccc3S(C)(=O)=O)c2c1=O [Compound I-143, 6-((5-cyclopropylpyridin-2-yl)amino)-2-methyl-4-((2-(methylsulfonyl)phenyl)amino)-1,2-dihydro-3H-pyrazolo[3,4-b]pyridin-3-one]
Table 4, JH2 binding assay
  Kd: 0.1 to 0.5 nM

## COc1c(Cl)cccc1Nc1cc(Nc2cc(C)nc(C)n2)nc2[nH]n(C)c(=O)c12 [Compound I-96, 4-((3-chloro-2-methoxyphenyl)amino)-6-((2,6-dimethylpyrimidin-4-yl)amino)-2-methyl-1,2-dihydro-3H-pyrazolo[3,4-b]pyridin-3-on]
Table 4, JH2 binding assay
  Kd: 0.1 to 0.5 nM

## COc1c(Nc2cc(NC(=O)C3CC3)ncc2-c2nnc(CO)o2)cccc1-c1ncn(C)n1 [VIII-5, N-(5-(5-(hydroxymethyl)-1,3,4-oxadiazol-2-yl)-4-((2-methoxy-3-(1-methyl-1H-1,2,4-triazol-3-yl)phenyl)amino)pyridin-2-yl)cyclopropanecarboxamide]
[1]
  Kd: 1 to 10 nM

## COc1c(Nc2cc(Nc3cccc(C#N)n3)nc3[nH]n(C)c(=O)c23)cccc1-c1nnn(C)n1 [Compound I-28, 6-((4-((2-methoxy-3-(2-methyl-2H-tetrazol-5-yl)phenyl)amino)-2-methyl-3-oxo-2,3-dihydro-1H-pyrazolo[3,4-b]pyridin-6-yl)amino)picolinonitrile]
Table 4, JH2 binding assay
  Kd: 1 to 10 nM

## COc1c(Cl)cccc1Nc1cc(Nc2ccc(N3CCC3)c(C#N)n2)nc2[nH]n(C)c(=O)c12 [Compound I-144, 3-(azetidin-1-yl)-6-((4-((3-chloro-2-methoxyphenyl)amino)-2-methyl-3-oxo-2,3-dihydro-1H-pyrazolo[3,4-b]pyridin-6-yl)amino)picolinonitrile]
Table 4, JH2 binding assay
  Kd: 0.1 to 0.5 nM

## COc1c(Nc2cc(Nc3ccc(C#N)cn3)nc3[nH]n(C)c(=O)c23)cccc1-c1ncn(C)n1 [Compound I-25, 6-((4-((2-methoxy-3-(1-methyl-1H-1,2,4-triazol-3-yl)phenyl)amino)-2-methyl-3-oxo-2,3-dihydro-1H-pyrazolo[3,4-b]pyridin-6-yl)amino)nicotinonitrile]
Table 4, JH2 binding assay
  Kd: 0.1 to 0.5 nM

## COc1c(Nc2cc(Nc3cc(C)nc(C)n3)nc3[nH]n(C)c(=O)c23)cccc1-c1nnn(C)n1 [Compound I-9, 6-((2,6-dimethylpyrimidin-4-yl)amino)-4-((2-methoxy-3-(2-methyl-2H-tetrazol-5-yl)phenyl)amino)-2-methyl-1,2-dihydro-3H-pyrazolo[3,4-b]pyridin-3-one]
Table 4, JH2 binding assay
  Kd: < 0.1 nM

## COc1c(Nc2cc(Nc3cccc(C(F)(F)F)n3)nc3[nH]n(C)c(=O)c23)cccc1-c1nnn(C)n1 [Compound I-60, 4-((2-methoxy-3-(2-methyl-2H-tetrazol-5-yl)phenyl)amino)-2-methyl-6-((6-(trifluoromethyl)pyridin-2-yl)amino)-1,2-dihydro-3H-pyrazolo[3,4-b]pyridin-3-one]
Table 4, JH2 binding assay
  Kd: 0.1 to 0.5 nM

## Cn1ccc(Nc2cc(Nc3ccccc3S(C)(=O)=O)c3c(=O)n(C)[nH]c3n2)n1 [Compound I-137, 2-methyl-6-((1-methyl-1H-pyrazol-3-yl)amino)-4-((2-(methylsulfonyl)phenyl)amino)-1,2-dihydro-3H-pyrazolo[3,4-b]pyridin-3-one]
Table 4, JH2 binding assay
  Kd: 0.5 to 1 nM

## COc1c(Nc2cc(Nc3cc(C#N)ncn3)nc3[nH]n(C)c(=O)c23)cccc1-c1nnn(C)n1 [Compound I-29, 6-((4-((2-methoxy-3-(2-methyl-2H-tetrazol-5-yl)phenyl)amino)-2-methyl-3-oxo-2,3-dihydro-1H-pyrazolo[3,4-b]pyridin-6-yl)amino)pyrimidine-4-carbonitrile]
Table 4, JH2 binding assay
  Kd: 0.1 to 0.5 nM

## COc1c(Nc2cc(NC(=O)C3CC3)nc3[nH]n(C)c(=O)c23)ccc(F)c1F [Compound I-127, N-(4-((3,4-difluoro-2-methoxyphenyl)amino)-2-methyl-3-oxo-2,3-dihydro-1H-pyrazolo[3,4-b]pyridin-6-yl)cyclopropanecarboxamide]
Table 4, JH2 binding assay
  Kd: > 10 nM

## COc1c(Nc2cc(Nc3cc(C)ccn3)nc3[nH]n(C)c(=O)c23)cccc1-c1ncc(C)s1 [Compound I-47, 4-((2-methoxy-3-(5-methylthiazol-2-yl)phenyl)amino)-2-methyl-6-((4-methylpyridin-2-yl)amino)-1,2-dihydro-3H-pyrazolo[3,4-b]pyridin-3-one]
Table 4, JH2 binding assay
  Kd: > 10 nM

## COc1c(Nc2cc(Nc3ccc(N4CCOCC4)cn3)nc3[nH]n(C)c(=O)c23)cccc1-c1nnn(C)n1 [Compound I-7, 4-((2-methoxy-3-(2-methyl-2H-tetrazol-5-yl)phenyl)amino)-2-methyl-6-((5-morpholinopyridin-2-yl)amino)-1,2-dihydro-3H-pyrazolo[3,4-b]pyridin-3-one]
Table 4, JH2 binding assay
  Kd: 1 to 10 nM

## COc1c(C#N)cccc1Nc1cc(Nc2cc(C)nc(C)n2)nc2[nH]n(C)c(=O)c12 [Compound I-39]
Table 4, JH2 binding assay
  Kd: > 10 nM

## COc1c(Nc2cc(NC(=O)C3CC3)nc3[nH]n(C)c(=O)c23)cccc1C(=O)O [Compound I-231, 3-((6-(cyclopropanecarboxamido)-2-methyl-3-oxo-2,3-dihydro-1H-pyrazolo[3,4-b]pyridin-4-yl)amino)-2-methoxybenzoic acid]
Table 4, JH2 binding assay
  Kd: 1 to 10 nM

## COc1c(Nc2cc(Nc3cc(C)c(F)cn3)nc3[nH]n(C)c(=O)c23)cccc1C(N)=O [Compound I-106]
Table 4, JH2 binding assay
  Kd: 1 to 10 nM

Reference: patent US10323036B2 (Nimbus Lakshmi, Inc., priority 2016, dated 2019)
